Measured values as given in patent US8334316B2, “Substituted organosulfur compounds and methods of using thereof” (ACEA Biosciences, Inc., priority 2004, dated 2012).
Values joined by “and” are separate entries in the source; they are usually repeats but may differ in a detail not shown here. Equal values may be shown once. Marks after values point to notes of the source that are not given here.

Experiments:
[1] = test system: mouse sarcoma S180; assay: In vivo antitumor efficacy, mouse sarcoma S180 model (subcutaneously transplanted), Example 1
[2] = test system: mouse Lewis lung cancer; assay: In vivo antitumor efficacy, mouse Lewis lung cancer model (subcutaneously transplanted), Example 1
Description: Test controls. For the negative control, two groups were set up: the solvent only control group and normal saline control group. […] In the normal saline group, each mouse was administered with 0.5 ml of normal saline, once per day and for 7 or 10 consecutive days. For the positive control group, the anticancer compound, cyclophosphamide (CTX) was administered intraperitoneally at 30 mg/kg, once per day and for 7 or 10 consecutive days.
In the mouse Lewis lung cancer model, 200 mg of DBTS was dissolved in 5 mL castor oil (in polyoxyethlated version). […] The intravenous injection speed was about 0.5 mL/0.5 min.
The dosages and administration of test compounds are within the knowledge of those commonly skilled in pharmacology. For example, the test compounds may be administered by intravenous injection with a test compound solution twice per day and for 7 consecutive days. Alternatively, the test compounds may be administered by intravenous injection with a test compound solution once per day and for 10 consecutive days.
0.2 mL of the tumor cell suspension (between 4 and 8 million tumor cells) was then transplanted back into an experimental mouse by subcutaneous injection. […] Each removed solid tumor was weighted, and the tumor inhibition rate in the DBTS-treated groups and in the CTX-treated group was calculated according to the formula: Tumor inhibition rate %=(average weight of tumor in the negative control group−average weight of tumor in the compound treated group)/average weight of tumor in the negative control group×100 (2)
For the mouse Lewis lung cancer model, the Lewis lung cancer cells were subcutaneously transplanted at approximately 5 million cells per mouse. After 24 hours of the transplantation, each mouse in the test group was administered intravenously with dibenzyl trisulfide at 50, 25, or 12.5 mg/kg per day and for 10 consecutive days. For the positive control group, each mouse was administered with CTX at […] intraperitoneally per day and for 10 consecutive days. For the negative control group, each mouse was administered intravenously either with normal saline, or with the solvent for dibenzyl trisulfide at the same concentration as that in the test group per day and for consecutive 10 days. For each group, 10 mice were used.

[3] = test system: mouse Lewis lung cancer; assay: In vivo antitumor efficacy, mouse Lewis lung cancer model, Example 2 (DBTS, CTX, Taxol reference)
[4] = test system: Bcap-37 human breast cancer; assay: Bcap-37 human breast cancer xenograft in nude mice, dosing from day 7 when tumors palpable (Example 5); type: in vivo; conditions: for Tumor Inhibition Rate C − T/C %: based on tumor weight; for Tumor Volume (g) X ± SD: end of study
Description: Only female mice were used in this study. […] The high, middle and low doses of ACEA100108 were 50, […] and 8 mg/kg/d, respectively.
Preparation and Administration of Test Compounds. […] Seven days after the tumor transplantation, the transplanted tumors grew to size sufficiently large that could be felt by hands when one touched the animal. […] The high, middle and low dose of ACEA100108 was 50, 20 and 8 mg/kg, respectively.
About seven days after the transplantation, tumors in the mice grew sufficiently large so that tumor could be felt by hands when one touched the animals.
For the human breast cancer xenograft model, all used materials, including animal food, animal cage, supporting materials and apparatus contacted by animals, were high-pressure sterilized. Nude mice were maintained in laminar flow shelves under SPF condition. After tumor transplantation, mouse weight and tumor size in each compound dosage group were dynamically monitored and recorded. The tumors size was determined by measuring the major axis (a) and minor axis (b) of the tumor, and tumor volume was calculated according to the equation (3) in Example 3.

[5] = test system: A549 human lung cancer cells; assay: Cell-cycle distribution by propidium iodide flow cytometry in A549 cells; type: cell-based; conditions: 25 uM, 24 hrs, vs DMSO
Description: Another in vitro assay may be used to evaluate the effect of compounds in arresting the cell cycle progression. More specifically, a test compound is added to cells of certain cell lines in a concentration-dependent manner. After cells are incubated for certain specific length of time, cells are stained using propidium iodide and are used for flow cytometric assessment. The cell populations of sub-G0/G1, G0/G1, S and G2/M phases are determined. All above in vitro assays are cell-based, single-time point (or multiple-time points using multiple plates) end-point assays.
Microtubules are extremely important in the process of mitosis, during which the duplicated chromosomes of a cell are separated into two identical sets before cleavage of the cell into two daughter cells. […] As consequence, cells will be arrested at G2/M phase.
In briefly, A549 cells were seeded at a density of 500,000 cells in 60 mm tissue culture dishes. Approximately 18 hours later the cells were treated with the indicated concentrations of anti-mitotic compounds and allowed to further incubate for 24 hours. The cells were washed in PBS, trypsinized, counted and fixed in ice-cold 70% methanol and stored at 4° C. The cells were washed with PBS, stained with propidium iodide and kept on ice until flow cytometry analysis.

[6] = 12.5 mg/kg/d iv x10 qd, vs 5% solvent control
[7] = 12.5 mg/kg/d iv x10 qd, vs normal saline control
[8] = 25 mg/kg/d iv x10 qd, vs 5% solvent control
[9] = 25 mg/kg/d iv x10 qd, vs normal saline control
[10] = 50 mg/kg/d iv x10 qd, vs 5% solvent control
[11] = 50 mg/kg/d iv x10 qd, vs normal saline control

## c1ccc(CSSSCc2ccccc2)cc1 [DBTS, Dibenzyl trisulfide]
[1]; 12.5 mg/kg/d iv x7 qd
  Animal weight (g) end: 24.5 g
[1]; 12.5 mg/kg/d iv x7 qd, vs 10% solvent control
  Inhibition rate (%): 30.46%
[1]; 12.5 mg/kg/d iv x7 qd, vs normal saline control
  Inhibition rate (%): 48.69%
[1]; 25 mg/kg/d iv x7 qd, vs 10% solvent control
  Inhibition rate (%): 38.58%
[1]; 25 mg/kg/d iv x7 qd, vs normal saline control
  Inhibition rate (%): 54.68%
[1]; 50 mg/kg/d iv x7 qd, vs 10% solvent control
  Inhibition rate (%): 50.25%
[1]; 50 mg/kg/d iv x7 qd, vs normal saline control
  Inhibition rate (%): 63.30% and 65%
[2]; [6]
  Inhibition rate (%): 37.38% and 37.28%
[2]; [7]
  Inhibition rate (%): 45.21%
[2]; [8]
  Inhibition rate (%): 44.30%
[2]; [9]
  Inhibition rate (%): 51.34%
[2]; [10]
  Inhibition rate (%): 62.28%
[2]; [11]
  Inhibition rate (%): 67.05% and 65%
[3]; 12.5 mg/kg/d iv x10 qd
  Tumor weight: 1.59 ± 0.16 g
[3]; [6]
  tumor inhibition rate %: 35.10%
[3]; [7]
  tumor inhibition rate %: 43.10% and 43.01%
[3]; 25 mg/kg/d iv x10 qd
  Tumor weight: 1.35 ± 0.10 g
[3]; [8]
  tumor inhibition rate %: 46.94%
[3]; [9]
  tumor inhibition rate %: 51.61%
[3]; 50 mg/kg/d iv x10 qd
  Tumor weight: 0.955 ± 0.20 g
[3]; [10]
  tumor inhibition rate %: 61.02%
[3]; [11]
  tumor inhibition rate %: 65.77% and 65%

## Fc1ccc(CSSSCc2ccc(F)cc2)cc1 [ACEA100108, Di(p-fluorobenzyl)trisulfide]
[4]; 8 mg/kg iv x7 qd, 0 d (beginning)
  Body weight of mice: 18.5 g and 18.5 ± 1 g
[4]; 8 mg/kg iv x7 qd, 7 d
  Body weight of mice: 19.8 ± 1.5 g
  Mice with palpable tumor / total mice: 6/6††
[4]; 8 mg/kg iv x7 qd, 7 d after transplantation (start of dosing)
  Tumor volume (cm^3): 0.01 cm^3
[4]; 8 mg/kg iv x7 qd, 14 d
  Body weight of mice: 21.7 ± 1.4 g
  Tumor volume (cm^3): 0.107 ± 0.02 cm^3
[4]; 8 mg/kg iv x7 qd, 21 d
  Body weight of mice: 23.2 ± 1.5 g
  Tumor volume (cm^3): 0.27 ± 0.03 cm^3
[4]; 8 mg/kg iv x7 qd, 24 d
  Tumor volume (cm^3): 0.962 ± 0.23 cm^3
[4]; 8 mg/kg iv x7 qd, 24 d (end)
  Body weight of mice: 24.0 g and 24 ± 1.4 g
[4]; 8 mg/kg/d iv x7 qd
  Tumor Volume Inhibition T/C %: 53.38%
  Tumor weight: 1.12 ± 0.18 g
  Tumor Inhibition Rate C − T/C %: 28.21%
  Tumor Volume (g) X ± SD: 0.962 ± 0.23*** cm^3
[4]; 20 mg/kg iv x7 qd, 0 d (beginning)
  Body weight of mice: 18.8 ± 1.2 g
[4]; 20 mg/kg iv x7 qd, 7 d
  Body weight of mice: 19.5 ± 1 g
  Mice with palpable tumor / total mice: 6/6††
[4]; 20 mg/kg iv x7 qd, 7 d after transplantation (start of dosing)
  Tumor volume (cm^3): 0.01 cm^3
[4]; 20 mg/kg iv x7 qd, 14 d
  Body weight of mice: 21.2 ± 1.5 g
  Tumor volume (cm^3): 0.087 ± 0.01 cm^3
[4]; 20 mg/kg iv x7 qd, 21 d
  Body weight of mice: 22.3 ± 1.6 g
  Tumor volume (cm^3): 0.23 ± 0.04 cm^3
[4]; 20 mg/kg iv x7 qd, 24 d
  Tumor volume (cm^3): 0.74 ± 0.18 cm^3
[4]; 20 mg/kg iv x7 qd, 24 d (end)
  Body weight of mice: 24.3 g and 24.3 ± 0.8 g
[4]; 20 mg/kg/d iv x7 qd
  Tumor Volume Inhibition T/C %: 41.06%
  Tumor weight: 0.822 ± 0.12 g
  Tumor Inhibition Rate C − T/C %: 47.31%
  Tumor Volume (g) X ± SD: 0.740 ± 0.18*** cm^3
[4]; 50 mg/kg iv x7 qd, 0 d (beginning)
  Body weight of mice: 18.2 g and 18.2 ± 1.2 g
[4]; 50 mg/kg iv x7 qd, 7 d
  Body weight of mice: 19.3 ± 1 g
  Mice with palpable tumor / total mice: 6/6††
[4]; 50 mg/kg iv x7 qd, 7 d after transplantation (start of dosing)
  Tumor volume (cm^3): 0.01 cm^3
[4]; 50 mg/kg iv x7 qd, 14 d
  Body weight of mice: 20.7 ± 1.2 g
  Tumor volume (cm^3): 0.049 ± 0.02 cm^3
[4]; 50 mg/kg iv x7 qd, 21 d
  Body weight of mice: 21.8 ± 1.5 g
  Tumor volume (cm^3): 0.169 ± 0.03 cm^3
[4]; 50 mg/kg iv x7 qd, 24 d
  Tumor volume (cm^3): 0.485 ± 0.06 cm^3
[4]; 50 mg/kg iv x7 qd, 24 d (end)
  Body weight of mice: 22.8 g and 22.8 ± 1.5 g
[4]; 50 mg/kg iv x10 qd, 0 d (beginning)
  Body weight of mice: 18.8 g and 18.8 ± 1 g
[4]; 50 mg/kg iv x10 qd, 7 d
  Body weight of mice: 19.7 ± 1 g
  Mice with palpable tumor / total mice: 6/6††
[4]; 50 mg/kg iv x10 qd, 7 d after transplantation (start of dosing)
  Tumor volume (cm^3): 0.01 cm^3
[4]; 50 mg/kg iv x10 qd, 14 d
  Body weight of mice: 20.3 ± 1.4 g
  Tumor volume (cm^3): 0.048 ± 0.03 cm^3
[4]; 50 mg/kg iv x10 qd, 21 d
  Body weight of mice: 21.5 ± 1.8 g
  Tumor volume (cm^3): 0.114 ± 0.02 cm^3
[4]; 50 mg/kg iv x10 qd, 24 d
  Tumor volume (cm^3): 0.28 ± 0.04 cm^3
[4]; 50 mg/kg iv x10 qd, 24 d (end)
  Body weight of mice: 21.2 g and 21.2 ± 1.2 g
[4]; 50 mg/kg/d iv x7 qd
  Tumor Volume Inhibition T/C %: 26.91%
  Tumor weight: 0.745 ± 0.10 g
  Tumor Volume (g) X ± SD: 0.485 ± 0.06*** cm^3
[4]; 50 mg/kg/d iv x10 qd
  Tumor Volume Inhibition T/C %: 15.53%
  Tumor weight: 0.672 ± 0.10 g
  Tumor Inhibition Rate C − T/C %: 56.92%
  Tumor Volume (g) X ± SD: 0.280 ± 0.04*** cm^3
[5]
  Cell population at G2/M phase: increased significantly
